Some test systems named below: NCI/ADR-RES; Hs-578T; UACC-257; NCI-H226; NCI-H460; MOLT-4; MDA-N; SR; NCI-H23; PC-3; HOP-62; MDA-MB-435; SNB-19; SK-OV-3; HCC 2998; U-251; 786-0; MCF7; OVCAR-5; OVCAR-4.
Common to all, as to assay: growth of human tumour cells (NCI), 48 h

SMILES strings stand for the structures.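 48-hour exposure; five concentrations; linearly interpolated endpoints. GI50 marks 50% less growth.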 Calls of active or inactive are those of the source. Cut-off read from the data, not from the text of the source: active = GI50 up to about 1.1 µM and inactive = higher. Some results are limits rather than exact numbers.

Consider `CCOP(=O)(OCC)C(F)(F)Cc1cnc(C)c2c1COC(C)(C)O2`, for which the GI50 with NCI/ADR-RES, with Hs-578T, in the assay with UACC-257, in the assay with NCI-H226, in the assay on NCI-H460 and in the assay with MOLT-4 was > 10 µM (inactive) in each case. The GI50 with MDA-N, with SR, in the assay on NCI-H23, in the assay on PC-3, with HOP-62 and in the assay on MDA-MB-435 was > 10 µM (inactive) in each case. The GI50 in the assay with SNB-19, with SK-OV-3, in the assay with HCC 2998, in the assay with U-251, in the assay with 786-0 and in the assay with MCF7 was > 10 µM (inactive) in each case. Besides, the GI50 in the assay with OVCAR-5 and with OVCAR-4 was > 10 µM (inactive) in each case.

As for `CCOP(=O)(OCC)C(C#N)Cc1ccco1` (stereo unspecified), the GI50 in the assay on NCI/ADR-RES, in the assay on Hs-578T, with UACC-257, with NCI-H226, with NCI-H460 and with MOLT-4 was > 10 µM (inactive) in each case. Further, the GI50 with MDA-N, in the assay with SR, in the assay with NCI-H23, in the assay on PC-3, with HOP-62 and in the assay with MDA-MB-435 was > 10 µM (inactive) in each case. For the same compound, the GI50 with SNB-19, in the assay on SK-OV-3, with HCC 2998, in the assay with U-251, in the assay on 786-0 and in the assay on MCF7 was > 10 µM (inactive) in each case. The GI50 in the assay with OVCAR-5 and in the assay on OVCAR-4 was > 10 µM (inactive) each time.

Regarding `COC(=O)Cc1cc2c(cc1C(=O)c1ccc(N)cc1)OCO2`, the GI50 with NCI/ADR-RES was 0.667 µM (active); in the assay with Hs-578T it was 2.26 µM (inactive); in the assay on NCI-H226, 22.2 µM (inactive); in the assay on NCI-H460, 12.2 µM (inactive); in the assay with MOLT-4 it was 1.63 µM (inactive); in the assay on MDA-N it was 0.19 µM (active). The GI50 in the assay with SR was 0.117 µM (active); in the assay with NCI-H23 it was 5.68 µM (inactive); with PC-3, 1.73 µM (inactive); in the assay with HOP-62 it was 3.84 µM (inactive); in the assay on MDA-MB-435, 0.169 µM (active); in the assay on SNB-19, 8.83 µM (inactive). The GI50 in the assay on SK-OV-3 was 2.94 µM (inactive); in the assay on HCC 2998, 0.78 µM (active); with U-251, 3.05 µM (inactive); with 786-0 it was 5.58 µM (inactive); in the assay on MCF7, 0.902 µM (active); with OVCAR-5 it was 6.46 µM (inactive). In the assay with OVCAR-4, the GI50 is 11.2 µM (inactive).

In the case of `Cc1ccc(NC(=O)c2cc(S(=O)(=O)Nc3nc4cccnc4[nH]3)c(SSc3cc(Cl)c(C(=O)Nc4ccc(C)cc4)cc3S(=O)(=O)Nc3nc4cccnc4[nH]3)cc2Cl)cc1`, the GI50 with NCI/ADR-RES, in the assay on Hs-578T, in the assay with UACC-257, in the assay with NCI-H226, with NCI-H460 and in the assay on MOLT-4 was > 100 µM (inactive) each time. Further, the GI50 in the assay with MDA-N, with SR, with NCI-H23, with PC-3, in the assay on HOP-62 and with MDA-MB-435 was > 100 µM (inactive) in each case. The GI50 with SNB-19, in the assay with SK-OV-3, with HCC 2998, with U-251, in the assay on 786-0 and in the assay with MCF7 was > 100 µM (inactive) in each case. Further, the GI50 in the assay with OVCAR-5 and with OVCAR-4 was > 100 µM (inactive) in each case.

Take `N#Cc1nc(COCCOCc2ccccc2)oc1N`: the GI50 in the assay on NCI/ADR-RES, in the assay on Hs-578T, in the assay on UACC-257, in the assay with NCI-H226, in the assay with NCI-H460 and with MOLT-4 was > 100 µM (inactive) in each case. The GI50 in the assay with MDA-N, in the assay with SR, in the assay on NCI-H23, with PC-3, in the assay on HOP-62 and with MDA-MB-435 was > 100 µM (inactive) in each case. Moreover, the GI50 in the assay with SNB-19, in the assay with SK-OV-3, in the assay on HCC 2998, in the assay with U-251, in the assay with 786-0 and with MCF7 was > 100 µM (inactive) throughout. Moreover, the GI50 in the assay on OVCAR-5 and with OVCAR-4 was > 100 µM (inactive) throughout.

Take `COC(=O)c1cc2c3c(c1)Oc1cc(C(=O)OC)cc4c1C3c1c(cc(C(=O)OC)cc1O4)O2`: the GI50 with NCI/ADR-RES was 0.163 µM (active); with Hs-578T, 15.3 µM (inactive); in the assay on UACC-257, 27.4 µM (inactive); in the assay with NCI-H226, 3.82 µM (inactive); in the assay with NCI-H460 it was 23.8 µM (inactive); in the assay with MOLT-4, 7.41 µM (inactive). Besides, the GI50 in the assay with MDA-N was 8.22 µM (inactive); in the assay with SR, 13.8 µM (inactive); with NCI-H23, 25.1 µM (inactive); in the assay on PC-3 it was 10.4 µM (inactive); in the assay on HOP-62 it was 11.4 µM (inactive); with MDA-MB-435, 9.68 µM (inactive). For the same compound, the GI50 is 20 µM (inactive) in the assay on SNB-19; 16.6 µM (inactive) in the assay with SK-OV-3; 31.8 µM (inactive) in the assay with HCC 2998; 12.3 µM (inactive) with U-251; 11 µM (inactive) with 786-0; 10.6 µM (inactive) with MCF7. Also, the GI50 with OVCAR-5 was 24.5 µM (inactive); with OVCAR-4, 34 µM (inactive).

In the case of `Nc1nc(N)c2cc(CNc3ccc(C(=O)NC(CC(=O)O)C(=O)O)c(Cl)c3)ccc2n1` (stereo unspecified), the GI50 in the assay on NCI/ADR-RES is < 0.0282 µM (active); in the assay on Hs-578T it was 357 µM (inactive); with UACC-257 it was 0.259 µM (active); with NCI-H226, > 21.6 µM (inactive); with NCI-H460, 0.0256 µM (active); in the assay on MOLT-4 it was 0.0175 µM (active). For the same compound, the GI50 in the assay on MDA-N was < 0.01 µM (active); in the assay on SR, 0.05 µM (active); in the assay with NCI-H23 it was 0.117 µM (active); with PC-3 it was 10.1 µM (inactive); with MDA-MB-435, < 0.01 µM (active); with SNB-19, 0.248 µM (active). The GI50 in the assay on SK-OV-3 is 6.82 µM (inactive); with HCC 2998, 1.43 µM (inactive); with U-251, 0.0556 µM (active); in the assay on 786-0, 0.0736 µM (active); with MCF7, 0.0507 µM (active); in the assay on OVCAR-5, 0.191 µM (active). In the assay with OVCAR-4, the GI50 was 153 µM (inactive).

In the case of `Cc1cccc(NC(=S)NNC(=O)c2cc(-c3ccccc3)nc3ccccc23)c1`, the GI50 in the assay with NCI/ADR-RES was 36.7 µM (inactive); with Hs-578T, 37 µM (inactive); in the assay with UACC-257, 33.4 µM (inactive); with NCI-H226, 34.4 µM (inactive); in the assay with NCI-H460, 30.9 µM (inactive); with MOLT-4 it was 27.5 µM (inactive). Further, the GI50 with MDA-N was 45.7 µM (inactive); in the assay on SR it was 17.9 µM (inactive); in the assay with NCI-H23, 27.9 µM (inactive); with PC-3, 27.5 µM (inactive); in the assay on HOP-62 it was 32 µM (inactive); in the assay with MDA-MB-435 it was 28.4 µM (inactive). Moreover, the GI50 with SNB-19 is 37.8 µM (inactive); with SK-OV-3, 25.6 µM (inactive); in the assay with HCC 2998, 25.1 µM (inactive); with U-251 it was 30.1 µM (inactive); in the assay with 786-0, 29.7 µM (inactive); in the assay on MCF7, 20.5 µM (inactive). In addition, the GI50 in the assay with OVCAR-5 is 35.5 µM (inactive); in the assay with OVCAR-4 it was 57.9 µM (inactive).

As for `O=P1(N(CCCl)CCCl)Oc2ccc(Cl)cc2Sc2c(ccc(Cl)c2Cl)O1` (stereo unspecified), the GI50 is 6.04 µM (inactive) with NCI/ADR-RES; 2.13 µM (inactive) in the assay on Hs-578T; 10.4 µM (inactive) in the assay on UACC-257; 8.26 µM (inactive) in the assay with NCI-H226; 4.79 µM (inactive) in the assay with NCI-H460; 3.96 µM (inactive) with MOLT-4. The GI50 with MDA-N is 7.91 µM (inactive); in the assay with SR, 2.99 µM (inactive); in the assay with NCI-H23, 4.27 µM (inactive); with PC-3, 3.28 µM (inactive); in the assay on HOP-62 it was 16 µM (inactive); in the assay on MDA-MB-435, 7.1 µM (inactive). The GI50 is 21.9 µM (inactive) in the assay with SK-OV-3; 16.5 µM (inactive) with HCC 2998; 6.76 µM (inactive) with U-251; 8.13 µM (inactive) with 786-0; 6.38 µM (inactive) with MCF7; 27.4 µM (inactive) in the assay on OVCAR-5. In the assay on OVCAR-4, the GI50 is 23.9 µM (inactive).

Consider `COc1cc(OC)c(C2(c3c(OC(C)C)c(=O)c3=O)SCCCS2)cc1OC`, for which the GI50 with NCI/ADR-RES, with Hs-578T, with UACC-257, in the assay with NCI-H226, in the assay with NCI-H460 and with MDA-N was > 100 µM (inactive) throughout. Moreover, the GI50 with SR, with NCI-H23, with PC-3, in the assay with HOP-62, in the assay with MDA-MB-435 and with SNB-19 was > 100 µM (inactive) each time. Further, the GI50 in the assay with SK-OV-3, in the assay on HCC 2998, in the assay with U-251, with 786-0, in the assay on MCF7 and with OVCAR-5 was > 100 µM (inactive) in each case. Also, the GI50 in the assay on OVCAR-4 is > 100 µM (inactive).
